In brackets after ≈: the same amount, converted by molar mass.
How the values were obtained:
Format in all cases: physicochemical
[1] = Dissolution tests on product F12511 (HPLC, 5% sodium lauryl sulfate, 2 hours)
Procedure: Dissolution Tests on Product F12511
Spectrophotometric detector set at 220 nm.
C8 graft column (Lichrospher 60RP-Select B), dimensions 25×0.4 cm, particle size: 5 μm.
Flow Rate: 1 ml/min Preparation of Solutions: Solution Under Examination
Introduce an amount of complex corresponding to approximately 100 mg of product F12511 into 100 ml of 5% (m/V) sodium lauryl sulfate in H2O. Subject the system to magnetic stirring in a waterbath at 37° C.±0.5° C. Withdraw 2 ml sample of this suspension after 2 hours of stirring and filter it on a Gelman GHP Acrodisc GF (R) filter.
Dilute the samples 1/5 in the mobile phase. Carry out 2 tests.
Introduce 8 mg of reference product F12511 (starting material used to prepare the complex) in a 100 ml flask and dissolve it in 1 ml of tetrahydrofuran (THF). Make up to volume with the mobile phase.
Inject 20 μl of each control solution. Measure the area of the peak of product F12511 and represent its variation as a function of concentration in the form of a graph. The correlation coefficient is>0.995. Inject 20 μl of the test solution. Measure the area of the peak of product F12511 present in the test solution, and ensure that it lies between that of T1 and of T5 in the range.
If this is not the case, perform a dilution in the solubilizing solvent and/or adjust the injection volume of the test solution.
From this, work out the concentration X (μg/ml) of the test solution.
Calculate the amount of dissolved product F12511 in mg/ml by the following formula:
[formula] • Y: injection volume of the test solution • F: dilution factor Measurements of Specific Surface Areas

[2] = Measurements of specific surface areas (BET); details: specific surface area
Procedure: The specific surface area measurements were carried out on a BET ASAP 2010 adsorption apparatus from Micrometrics.
Before the measuring phase, the sample requires a degassing step. This step consists in evacuating the cell containing the sample until a vacuum of at least 0.003 mm Hg, or approximately 0.004 mbar, is reached stably. This degassing is carried out at a temperature of 50° C. (duration: approximately 16 hours).
At the end of degassing, the cell containing the sample is filled with helium and transferred to the measuring station, where evacuation is repeated before analysis.
Processing of the Adsorption Isotherms
The specific surface area was determined in accordance with the BET theory, i.e., in accordance with the following relationship:
[formula] • W: volume of gas adsorbed (under standard temperature and pressure (STP) conditions) per unit mass of sample. • Wm: volume of gas adsorbed (under STP conditions) in a monolayer per unit mass of sample. • P0: saturation pressure. • C: constant.
The isotherm is then plotted as follows:
As a function of P/P0: we then have a straight line of which the slope and the ordinate at the origin give us C and Wm.
The specific surface area is then given by the following formula: a(m^2·g^−1)=NmNAE • E: space occupancy of the nitrogen molecule. For nitrogen at 77 K operating temperature this is generally taken to be E=0.162 nm^2. • NA: Avogadro's number. • Nm: number of moles of nitrogen adsorbed on a monolayer per unit mass of sample, calculated from Wm. The measurements are carried out within a conventional field of relative pressure in which the BET theory is valid, namely 0.05<P/P0<0.2. In order to verify the validity of this theory, one practical means is to look at the direction in which the quantity Nadsorbed. (1-P/P0) changes as a function of P/P0: it should increase continually with P/P0.
Verify the range of applicability of the BET theory in this way, and if necessary readjust the range of relative pressures.

[3] = Dissolution test ketoprofen powders (UV 260 nm); details: water, 37° C.
Procedure: Powder Analysis Protocol: Dissolution Test Operating conditions:
UV analysis at a wavelength of 260 nm.
Prepare a standard solution in H2O. Ensure that an absorbance<2 is maintained.
(§1) Execution of the Analysis:
(§2) Dissolve the powder with magnetic stirring using a stirrer bar in a waterbath at 37±0.5° C.
(§3) Withdraw 2 ml of this suspension after 2 hours of stirring and filter it on a 0.45 μm Gelman GHP filter. Carry out the UV analysis, ensuring that the absorbance is less than 2. If it is not, carry out dilution.

[4] = Dissolution test terfenadine powders (UV 259 nm); details: water, 37° C.
Procedure: Powder Analysis Protocol: Dissolution Test Operating Conditions:
UV analysis at a wavelength of 259 nm.
Prepare a standard solution in 1% (m/v) sodium lauryl sulfate in H2O. Ensure that an absorbance<2 is maintained.
as §1, §2, §3

[5] = Comparative Example 1, 2 hours, 5% sodium lauryl sulfate, 37° C.
[6] = Comparative Example 2, dissolution after two hours, 5% sodium lauryl sulfate, 37° C.

`CCCCCCCCCCCCS[C@H](C(=O)Nc1cc(C)c(O)c(C)c1C)c1ccccc1` gave a Dissolution ([1]; Comparative Example 5 (F12511 generated by SAS/ethanol), 2 hours, 5% sodium lauryl sulfate, 37° C.) of 80 µg/mL, a Dissolution ([1]; Comparative Example 6 (F12511 generated by SAS/DMSO), 2 hours, 5% sodium lauryl sulfate, 37° C.) of 57 µg/mL and a Dissolution ([1]; Comparative Example 7 (F12511 generated by RESS), 2 hours, 5% sodium lauryl sulfate, 37° C.) of 8 µg/mL.

With `CCCCCCCCCCCCS[C@H](C(=O)Nc1cc(C)c(O)c(C)c1C)c1ccccc1` [Example F12511, (S)-2′,3′,5′-trimethyl-4′-hydroxy-α-dodecylthiophenyl-acetanilide] the BET ([2]; Comparative Example 1) was 14 m^2/g, the BET ([2]; Comparative Example 2) was 14 m^2/g and the Dissolution [1, 5] was 6 to 12 µg/mL. The Dissolution [1, 6] was 12 µg/mL, the Dissolution ([1]; Comparative Example 3, 2 hours, 5% sodium lauryl sulfate, 37° C.) was 12 µg/mL and the Dissolution ([1]; Comparative Example 5 (F12511 generated by SAS/ethanol), 2 hours, 5% sodium lauryl sulfate, 37° C., listed as F12511 before precipitation) was about 15 µg/mL. It also gave a Dissolution ([1]; Comparative Example 6 (F12511 generated by SAS/DMSO), 2 hours, 5% sodium lauryl sulfate, 37° C., listed as F12511 before precipitation) of 5 µg/mL, a Dissolution ([1]; Comparative Example 7 (F12511 generated by RESS), 2 hours, 5% sodium lauryl sulfate, 37° C., listed as F12511 before precipitation) of about 10 µg/mL and a Dissolution ([1]; Example 4 (coprecipitation SAS/DMSO with γ-cyclodextrin), 2 hours, 5% sodium lauryl sulfate, 37° C.) of about 15 µg/mL. For the same compound, the “Dissolution of 2 hours, Active principle alone” value ([1]; F12511 alone) was 12 µg/mL and the “solubility after 2 hours in 5% aqueous sodium lauryl sulfate solution” value ([1]; after 2 hours, 5% aqueous sodium lauryl sulfate) was 6 µg/mL (≈ 12.8 µM).

Work on `CCCCCCCCCCCCS[C@H](C(=O)Nc1cc(C)c(O)c(C)c1C)c1ccccc1` [F12511 precipitated by RESS] yielded a BET ([2]; Comparative Example 2) of 67 m^2/g, a Dissolution [1, 6] of 76 µg/mL and a Dissolution ([1]; summary table, powder after precipitation or coprecipitation only, no molecular diffusion, listed as Comp. Ex. 2) of 76 µg/mL.

For `CCCCCCCCCCCCS[C@H](C(=O)Nc1cc(C)c(O)c(C)c1C)c1ccccc1` [F12511 precipitated by SAS], the BET ([2]; Comparative Example 1) was 54 m^2/g, the Dissolution [1, 5] was 62 µg/mL and the Dissolution ([1]; summary table, powder after precipitation or coprecipitation only, no molecular diffusion) was 62 µg/mL.

With `CC(C(=O)O)c1cccc(C(=O)c2ccccc2)c1` (stereo not shown) [Ketoprofen] the “concentration after 2 hours of dissolution, Active principle alone” value [3] was 333 µg/mL.

In the case of `CC(C)(C)c1ccc(C(O)CCCN2CCC(C(O)(c3ccccc3)c3ccccc3)CC2)cc1` (stereo not shown) [Terfenadine], the “concentration after 2 hours of dissolution, Active principle alone” value [4] is reported as under 1 µg/mL.
